{"source": "patent US20220265176A1", "about": "“A NOVEL, ORGAN-ON-A-CHIP DEVICE FOR ASSESSING TRANS-EPITHELIAL TRANSPORT, AND USES THEREOF” (The Johns Hopkins University, priority 2019, published 2022)", "key": {"[1]": {"tested_on": "MDCK-II epithelium", "assay": "Micro-fluidic Kidney Pump (MFKP) pump performance curve, MDCK-II epithelium", "type": "cell-based", "description": "(§1) A micro-fluidic device to measure transepithelial fluid absorption activities of the kidney epithelium while allowing for cell imaging andvsimultaneous control of fluid pressure, shear stress (FSS), and media chemical composition is described herein (see FIG. 2A-2F). The device measures fluidic flux across the epithelium as a function of apical and basal pressures using a microcapillary (MC) connected to port 2 or 3 (FIG. 2C). The MC measures both the trans-epithelial fluid flux and the hydraulic pressure (FIG. 2C, 2F). […] Calibration experiments are performed to obtain capillary action contribution from the MC to the basal pressure and the static pressure profiles of each device for the shear flow condition considered."}, "[2]": {"tested_on": "WTc cells", "assay": "MFKP pump performance curve, wild type cortex (WTc) primary kidney cells", "type": "cell-based, human", "description": "as §1\n(§2) Next, it was considered whether the device is useful for understanding fluidic pumping by primary human normal kidney and ADPKD cystic cells. […] The barrier function of the epithelia was again assessed using dye permeation assay (FIG. 15A-15I).\n(§3) Port 1 is closed. (4B) Schematic of the setup, which allows measurement of trans-epithelial fluid flux from the basal to apical chamber. (4C) Schematic representation of a cystic kidney derived from ADPKD patients. (4D) Schematic representation of a kidney derived from normal human patients. (4E) The MC is connected to port 3 in the MFKP. Port 1 is closed. (4F) This setup enables measurement of trans-epithelial fluid flux from apical to basal chamber."}, "[3]": {"tested_on": "WTm cells", "assay": "MFKP pump performance curve, wild type medulla (WTm) primary kidney cells", "type": "cell-based, human", "description": "as §1, §2, §3"}, "[4]": {"tested_on": "ADPKD cystic cells", "assay": "MFKP pump performance curve, ADPKD cystic cells", "type": "cell-based, human", "description": "as §1, §2\nPort 1 is closed. (4B) Schematic of the setup, which allows measurement of trans-epithelial fluid flux from the basal to apical chamber. (4C) Schematic representation of a cystic kidney derived from ADPKD patients."}, "[5]": {"tested_on": "cysts", "conditions": "mouse models of ADPKD; AVP treatment; reference [15]; cited from earlier work"}, "[6]": {"target": "V2R (Homo sapiens, UniProt P30518)", "sequence (P30518 whole entry, species assumed)": "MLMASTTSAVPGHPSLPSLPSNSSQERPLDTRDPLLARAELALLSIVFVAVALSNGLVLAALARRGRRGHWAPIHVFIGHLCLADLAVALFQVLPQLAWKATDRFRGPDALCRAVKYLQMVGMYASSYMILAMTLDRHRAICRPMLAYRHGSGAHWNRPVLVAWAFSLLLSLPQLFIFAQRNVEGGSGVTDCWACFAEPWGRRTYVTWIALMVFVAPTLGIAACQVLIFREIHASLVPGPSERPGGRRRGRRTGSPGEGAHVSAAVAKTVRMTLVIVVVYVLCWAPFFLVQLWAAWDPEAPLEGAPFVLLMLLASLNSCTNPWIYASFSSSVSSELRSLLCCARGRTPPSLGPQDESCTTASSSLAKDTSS", "conditions": "reference [18]; cited from earlier work"}, "[7]": {"tested_on": "ADPKD kidney", "conditions": "reference [16]; cited from earlier work"}, "[8]": {"conditions": "mature ADPKD epithelium, 1 nM TVP on basolateral side for 1 hour, vs control"}}}
{"smiles": "C[C@@H](N)[C@H]1CC[C@H](C(=O)Nc2ccncc2)CC1", "note": "[Y-27367]", "values": [{"measurement": "fluid flux", "setting": "[1]; MDCK-II epithelium in MFKP, addition of Y-27367", "result": "did not influence fluid flux significantly"}]}
{"smiles": "NC(=O)CC[C@@H]1NC(=O)[C@H](Cc2ccccc2)NC(=O)[C@H](Cc2ccc(O)cc2)NC(=O)[C@@H](N)CSSC[C@@H](C(=O)N2CCC[C@H]2C(=O)N[C@@H](CCCN=C(N)N)C(=O)NCC(N)=O)NC(=O)[C@H](CC(N)=O)NC1=O", "note": "[AVP, arginine vasopressin]", "values": [{"measurement": "J0 and ΔP*", "setting": "[2]; basolateral treatment of AVP", "result": "variable response"}, {"measurement": "J0 and ΔP*", "setting": "[3]; basolateral treatment of AVP", "result": "variable response"}, {"measurement": "pump performance curve (PPC)", "setting": "[1]; MDCK-II epithelium, chemical perturbation (addition of AVP)", "result": "changes substantially"}, {"measurement": "stall pressure ΔP*", "setting": "[4]; ADPKD cells, basolateral treatment of AVP", "result": "−300", "unit": "Pa"}, {"measurement": "basal-to-apical fluid pumping", "setting": "[4]; ADPKD epithelium, basolateral treatment of AVP", "result": "massive surge"}, {"measurement": "cyst growth", "setting": "[5]", "result": "grow bigger"}]}
{"smiles": "Cc1ccccc1C(=O)Nc1ccc(C(=O)N2CCCC(O)c3cc(Cl)ccc32)c(C)c1", "note": "(stereo not drawn) [Tolvaptan]", "values": [{"measurement": "cAMP levels", "setting": "[6]", "result": "decrease"}, {"measurement": "total kidney volume", "setting": "[7]", "result": "decreased"}, {"measurement": "J0 (fluid flux at zero pressure gradient)", "setting": "[4]; [8]", "result": "decreased"}, {"measurement": "stall pressure ΔP*", "setting": "[4]; [8]", "result": "decreased"}]}
{"smiles": "C[C@@H]1O[C@@H](O[C@H]2C[C@@H](O)[C@]3(CO)[C@H]4[C@H](O)C[C@]5(C)[C@@H](C6=CC(=O)OC6)CC[C@]5(O)[C@@H]4CC[C@]3(O)C2)[C@H](O)[C@H](O)[C@H]1O", "note": "[Ouabain]", "values": [{"measurement": "equilibrium fluid flux (J0)", "setting": "[2]; after Ouabain induced inhibition of NKA (control 4.3)", "result": 1.7, "unit": "μL/min/cm^2"}, {"measurement": "stall pressure ΔP*", "setting": "[2]; after Ouabain induced inhibition of NKA (control 157 Pa)", "result": 34, "unit": "Pa"}, {"measurement": "J0", "setting": "[3]; overnight incubation with 274 μM Ouabain (control 4.3)", "result": 1.0, "unit": "μL/min/cm2"}, {"measurement": "ΔP*", "setting": "[3]; overnight incubation with 274 μM Ouabain (control 56 Pa)", "result": 42, "unit": "Pa"}]}
